Experimental data reported in patent US7235547B2, “Pharmaceutical composition comprising an AChE inhibitor and a mGluR2 antagonist” (priority 2003, dated 2007).
Structures can show the parent of a compound that is named as a salt.

Test system: scopolamine-induced working memory deficit
Assay: scopolamine-induced working memory deficit in the delayed match to position (DMTP) task in rats
Type: in vivo, Male Lister Hooded rats
Details: for effect on the scopolamine deficit in DMTP task (percent correct responses): combination: Compound 23 1 mg/kg p.o. 180 min prior to testing, donepezil hydrochloride 1 mg/kg p.o. 145 min later, scopolamine 0.06 mg/kg s.c. 5 min later
Protocol: Except for during testing, water was available ad libitum at all times. The rats were tested in Med Associates operant chambers, equipped with 2 retractable levers positioned 7.5 cm either side of a central food tray. A single stimulus light (cue light) was positioned above each lever. Aluminum barriers (5.5 cm chamber extension) were fitted within the chamber to separate each lever from the food magazine. The chambers were controlled by Kestrel software (Conclusive Solutions, Harlow, UK) operating on an IBM compatible PC.
Rats were initially trained to lever press for a food reward (45 mg Formula ‘P’ pellet, Noyes, N.H.) on a continuous reinforcement (CRF) schedule with each lever presented singly an equal number of times (total 96 trials). On acquiring this behaviour the animals were next trained to make a matching response. Each trial consisted of a single lever being inserted into the chamber and the illumination of the appropriate stimulus light (sample stage). The rat was required to press the sample lever, which then immediately retracted. […] If the animal pressed the other lever, it was recorded as an incorrect response and was unrewarded. […] The next trial was signalled by illumination of the house light for a 5 s period, after which the sample lever was extended. The number of such trials per session was 96.
Initially, the delay between the sample and choice stage was 1 s after the first magazine nose poke. Once the animals had learned the matching rule (≧90% correct), the delay period was increased to 1, 2 and 4 s (32 trials per delay), up to a final level of 1, 2, 4, 8, 16, 24s. Sixteen trials were run at each delay. […] The parameters measured include % correct (total no. correct/(total no. correct+incorrect)×100) both for the total session and for each delay interval. Percent correct responses at each delay interval were analysed using an analysis of variance (ANOVA) with repeated measures on Treatment and Delay. Total percent correct responses were analysed using an ANOVA with repeated measures on Treatment. Post hoc tests were conducted by Newman-Keuls test. Statistical significance was accepted at P<0.05.
The experiment was conducted using a repeated measures design with each animal receiving each treatment according to a counterbalanced design. Animals were run 5 days/-week, with drug treatment on 2 test days per week, separated by at least 2 days. […] Scopolamine hydrobromide was dissolved in saline solution and was administered s.c. using an injection volume of 1 ml/kg.

Row | SMILES | effect on the scopolamine deficit in DMTP task (percent correct responses) | total correct responses collapsed over the delay intervals (scopolamine 0.06 mg/kg s.c.) | percent correct responses (per delay interval) (scopolamine 0.06 mg/kg s.c., delays 1-24 s)
1 | COc1cc2c(cc1OC)C(=O)C(CC1CCN(Cc3ccccc3)CC1)C2 (stereo not shown) [donepezil hydrochloride] | reversal of the scopolamine deficit | – | –
2 | CN1[C@@H]2C[C@@H](OC(=O)[C@H](CO)c3ccccc3)C[C@H]1[C@@H]1O[C@@H]12 [Scopolamine, Scopolamine hydrobromide] | – | significant reduction | significant delay-dependent reduction
3 | Cc1cc(-c2cccc(C3=Nc4cc(C)c(C(F)(F)F)cc4NC(=O)C3)c2)cc(C)n1 [Compound 23, 4-[3-(2,6-dimethyl-pyridin-4-yl)-phenyl]-7-methyl-8-trifluoromethyl-1,3-dihydro benzo[b][1,4]diazepin-2-one] | reversal of the scopolamine deficit | – | –
